In ChEMBL document CHEMBL1159104, “Potent transglutaminase inhibitors, aryl beta-aminoethyl ketones” (Bioorg Med Chem Lett, 2010):

Each compound was assayed against T1, Protein-glutamine gamma-glutamyltransferase (Cavia porcellus, UniProt Q7M0F8) (assay: Inhibition of guinea pig liver transglutaminase).
T1 sequence (Q7M0F8 whole entry): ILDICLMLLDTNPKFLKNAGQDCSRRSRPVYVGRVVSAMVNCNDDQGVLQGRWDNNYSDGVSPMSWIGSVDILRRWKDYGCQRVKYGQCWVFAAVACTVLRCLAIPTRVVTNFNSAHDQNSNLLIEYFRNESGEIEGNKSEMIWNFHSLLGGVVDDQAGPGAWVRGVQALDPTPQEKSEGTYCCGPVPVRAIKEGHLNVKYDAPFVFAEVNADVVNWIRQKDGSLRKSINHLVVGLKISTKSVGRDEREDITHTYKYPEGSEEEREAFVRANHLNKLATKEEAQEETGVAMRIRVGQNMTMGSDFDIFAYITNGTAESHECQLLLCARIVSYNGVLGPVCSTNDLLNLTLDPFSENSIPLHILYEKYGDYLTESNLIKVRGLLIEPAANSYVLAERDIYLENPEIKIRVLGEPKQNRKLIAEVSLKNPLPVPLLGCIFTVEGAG

IC50 [µM] | Compound
18 | CN(CCC(=O)c1ccc(Oc2ccccc2)cc1)Cc1ccccc1
1.8 | Cc1cnc(C(=O)CCN(C)Cc2ccccc2)s1
0.44 | CC(C)(C)N(CCC(=O)c1cccs1)Cc1ccccc1
6.5 | CC(C)N(CCO)CCC(=O)c1cccs1
2.5 | CCCCN(CCO)CCC(=O)c1ccncc1
2.8 | CCN(CCC(=O)c1ccc(C)o1)Cc1ccccc1
10 | CC(C)(C)N(CCO)CCC(=O)c1nccs1
0.8 | CCCCN(CCO)CCC(=O)c1ccc(C)o1
4 | CC(C)N(CCC(=O)c1ccc2ccccc2c1)Cc1ccccc1
0.36 | O=C(CCN(CCO)CCO)c1ccco1
11 | O=C(CCN(CCO)Cc1ccccc1)c1ccccc1
1.5 | O=C(CCN(CCO)Cc1ccccc1)c1cnccn1
0.081 | CC(C)(C)N(CCC(=O)c1ccc(Br)s1)Cc1ccccc1
8.3 | O=C(CCN(CCO)CCO)c1cccs1
15 | CCc1nccnc1C(=O)CCN(CCO)CCO
16 | CC(C)N(CCO)CCC(=O)c1nccs1
0.57 | CC(C)(C)N(CCC(=O)c1cnccn1)Cc1ccccc1
0.53 | CC(C)N(CCC(=O)c1cnccn1)Cc1ccccc1

IC50 [µM] | Compound
4 | CN(CCC(=O)c1cccnc1)Cc1ccccc1
10 | CCCCN(CCO)CCC(=O)c1ccccn1
5.4 | CC(C)N(CCO)CCC(=O)c1ccccn1
3.2 | CC(C)N(CCC(=O)c1nccs1)Cc1ccccc1
1.1 | CC(C)N(CCC(=O)c1ccccn1)Cc1ccccc1
0.1 | CC(C)(C)N(CCC(=O)c1ccc(Cl)s1)Cc1ccccc1
12 | O=C(CCN(CCO)Cc1ccccc1)c1ccsc1
1.4 | CC(C)(C)N(CCC(=O)c1nccs1)Cc1ccccc1
18 | CCc1nccnc1C(=O)CCN(CCO)Cc1ccccc1
1.2 | CN(CCO)CCC(=O)c1ccco1
7.7 | CCc1nccnc1C(=O)CCN(CCO)C(C)C
10 | CN(CCC(=O)c1ccsc1)Cc1ccccc1
13 | CCN(CCC(=O)c1ccc(F)cc1)Cc1ccccc1
1.8 | CN(CCC(=O)c1ccco1)Cc1ccccc1
1.1 | CC(C)(C)N(CCC(=O)c1ccc(F)cc1)Cc1ccccc1
19 | CCCCN(CCO)CCC(=O)c1cccs1
10 | CN(CCC(=O)c1cccs1)Cc1ccccc1
0.21 | CC(C)(C)N(CCC(=O)c1cc2ccccc2s1)Cc1ccccc1
